Assay results reported in patent US11845759B2, “Opioid compounds and uses thereof” (priority 2018, dated 2023).

Assays:
[1] = Hydrolysis in HCl solutions; format: physicochemical; settings: 6-OAc-Oxy
[2] = Hydrolysis in pH buffer/EtOH solutions; format: physicochemical; settings: 6-OAc-Oxy
μ-opioid receptor [3] = biological target: T1, μ-opioid receptor (Homo sapiens (Human), UniProt P35372); format: binding
[4] = Hydrolysis in human blood serum at 37° C.; settings: for 6-OAc-Oxy (%): 6-OAc-Oxy in human blood serum, 37° C.
[5] = Hydrolysis in simulated intestinal fluid at 37° C.; settings: for 6-OAc-Oxy (%): 6-OAc-Oxy in simulated intestinal fluid, 37° C.
μ-opioid receptor [6] = biological target: T1, μ-opioid receptor; assay: [35S]GTPγS μ-opioid receptor functional assay; format: biochemical
[7] = Hydrolysis in simulated gastric fluid at 37° C.; settings: 6-OAc-Oxy in simulated Gastric fluid
[8] = pH = 7 buffer (1:1 EtOH:H2O), 0 hrs
[9] = pH = 7 buffer (1:1 EtOH:H2O), 0.5 hrs
[10] = pH = 7 buffer (1:1 EtOH:H2O), 2 hrs
[11] = pH = 7 buffer (1:1 EtOH:H2O), 26 hrs
[12] = pH = 8 buffer (1:1 EtOH:H2O), 0 hrs
[13] = pH = 8 buffer (1:1 EtOH:H2O), 0.5 hrs
[14] = pH = 8 buffer (1:1 EtOH:H2O), 2 hrs
[15] = pH = 8 buffer (1:1 EtOH:H2O), 26 hrs
[16] = pH = 9 buffer (1:1 EtOH:H2O), 0 hrs
[17] = pH = 9 buffer (1:1 EtOH:H2O), 0.5 hrs
[18] = pH = 9 buffer (1:1 EtOH:H2O), 4 hrs
[19] = pH = 9 buffer (1:1 EtOH:H2O), 8 hrs
[20] = pH = 9 buffer (1:1 EtOH:H2O), 22 hrs
[21] = pH = 10 buffer (1:1 EtOH:H2O), 0 hrs
[22] = pH = 10 buffer (1:1 EtOH:H2O), 0.5 hrs
[23] = pH = 10 buffer (1:1 EtOH:H2O), 2 hrs
[24] = pH = 10 buffer (1:1 EtOH:H2O), 4 hrs
[25] = pH = 11 buffer (1:1 EtOH:H2O), 0 hrs
[26] = pH = 11 buffer (1:1 EtOH:H2O), 0.5 hrs

For `COc1ccc2c3c1OC1C(OC(C)=O)=CC[C@@]4(O)[C@@H](C2)N(C)CC[C@]314` (some centres unmarked) [6-acetyl oxycodone], the “6-OAc-Oxy (%)” value ([1]; 0.1N HCl solution, 0 hrs) was 89.4%, the “6-OAc-Oxy (%)” value ([1]; 0.1N HCl solution, 0.5 hrs) was 89.0% and the “Oxy (%)” value ([1]; 0.1N HCl solution, 0.5 hrs) was 6.43%. The “6-OAc-Oxy (%)” value ([1]; 0.1N HCl solution, 2 hrs) was 86.4%, the “Oxy (%)” value ([1]; 0.1N HCl solution, 2 hrs) was 7.8% and the “6-OAc-Oxy (%)” value ([1]; 0.1N HCl solution, 8 hrs) was 86.1%. For the same molecule, the “Oxy (%)” value ([1]; 0.1N HCl solution, 8 hrs) was 9.5%, the “6-OAc-Oxy (%)” value ([1]; 0.1N HCl solution, 24 hrs) was 67.3% and the “Oxy (%)” value ([1]; 0.1N HCl solution, 24 hrs) was 30.1%. For the same molecule, the “6-OAc-Oxy (%)” value ([1]; 1N HCl solution, 0 hrs) was 89.4%, the “6-OAc-Oxy (%)” value ([1]; 1N HCl solution, 0.5 hrs) was 81.5% and the “Oxy (%)” value ([1]; 1N HCl solution, 0.5 hrs) was 16.6%. For the same molecule, the “6-OAc-Oxy (%)” value ([1]; 1N HCl solution, 2 hrs) was 61.0%, the “Oxy (%)” value ([1]; 1N HCl solution, 2 hrs) was 30.3% and the “6-OAc-Oxy (%)” value ([1]; 1N HCl solution, 4 hrs) was 42.0%. The “Oxy (%)” value ([1]; 1N HCl solution, 4 hrs) was 56.4%, the “6-OAc-Oxy (%)” value ([1]; 1N HCl solution, 8 hrs) was 18.2% and the “Oxy (%)” value ([1]; 1N HCl solution, 8 hrs) was 80.8%. For the same molecule, the “6-OAc-Oxy (%)” value ([1]; 1N HCl solution, 24 hrs) was 1.7%, the “Oxy (%)” value ([1]; 1N HCl solution, 24 hrs) was 95.3% and the “6-OAc-Oxy (%)” value [2, 8] was 89.4%. For the same molecule, the “Oxy (%)” value [2, 8] was 9.4%, the “6-OAc-Oxy (%)” value [2, 9] was 87.2% and the “Oxy (%)” value [2, 9] was 9.5%. For the same molecule, the “6-OAc-Oxy (%)” value [2, 10] was 87.9%, the “Oxy (%)” value [2, 10] was 8.2% and the “6-OAc-Oxy (%)” value [2, 11] was 77.9%. The “Oxy (%)” value [2, 11] was 12.9%, the “6-OAc-Oxy (%)” value [2, 12] was 89.4% and the “Oxy (%)” value [2, 12] was 9.4%. For the same molecule, the “6-OAc-Oxy (%)” value [2, 13] was 87.4%, the “Oxy (%)” value [2, 13] was 10.4% and the “6-OAc-Oxy (%)” value [2, 14] was 87.0%. The “Oxy (%)” value [2, 14] was 8.8%, the “6-OAc-Oxy (%)” value [2, 15] was 75.3% and the “Oxy (%)” value [2, 15] was 20.9%. The “6-OAc-Oxy (%)” value [2, 16] was 89.4%, the “Oxy (%)” value [2, 16] was 9.0% and the “6-OAc-Oxy (%)” value [2, 17] was 89.4%. The “Oxy (%)” value [2, 17] was 9.0%, the “6-OAc-Oxy (%)” value [2, 18] was 86.3% and the “Oxy (%)” value [2, 18] was 11.9%. The “6-OAc-Oxy (%)” value [2, 19] was 75.5%, the “Oxy (%)” value [2, 19] was 14.9% and the “6-OAc-Oxy (%)” value [2, 20] was 66.5%. For the same molecule, the “Oxy (%)” value [2, 20] was 26.9%, the “6-OAc-Oxy (%)” value [2, 21] was 89.4% and the “Oxy (%)” value [2, 21] was 9.0%. The “6-OAc-Oxy (%)” value [2, 22] was 32.3%, the “Oxy (%)” value [2, 22] was 65.2% and the “6-OAc-Oxy (%)” value [2, 23] was 1.6%. For the same molecule, the “Oxy (%)” value [2, 23] was 96.8%, the “6-OAc-Oxy (%)” value [2, 24] was 1.2% and the “Oxy (%)” value [2, 24] was 98.3%. For the same molecule, the “6-OAc-Oxy (%)” value [2, 25] was 89.4%, the “Oxy (%)” value [2, 25] was 9.0% and the “6-OAc-Oxy (%)” value [2, 26] was 1.6%. For the same molecule, the “Oxy (%)” value [2, 26] was 97.1%, the Ki (μ-opioid receptor [3]) was 41 nM and the “Ki compared with that of oxycodone (in words)” value (μ-opioid receptor [3]) was “comparable”. The “6-OAc-Oxy (%)” value ([4]; 0 hrs) was 89.4%, the “6-OAc-Oxy (%)” value ([4]; 0.083 hrs (5 min)) was 0.65% and the “6-OAc-Oxy (%)” value ([4]; 0.5 hrs) was 0.39%. The “hydrolysis in human blood serum (in words)” value ([4]; human blood serum (37° C.)) was “hydrolyzed quickly”, the “hydrolysis to oxycodone (in words)” value ([4]; human blood serum (37° C.), five minutes) was “mostly hydrolyzed to oxycodone” and the “6-OAc-Oxy (%)” value ([5]; 0 hrs) was 89.4%. For the same molecule, the “6-OAc-Oxy (%)” value ([5]; 0.5 hrs) was 39.8%, the “6-OAc-Oxy (%)” value ([5]; 2 hrs) was 0.7% and the “6-OAc-Oxy (%)” value ([5]; 4 hrs) was 0.0%. The “time to hydrolyze releasing oxycodone” value ([5]; mixture in simulated intestinal fluid (37° C., pH 6.8, pancreatine)) was “less than 2 hours”, the EC50 (μ-opioid receptor [6]) was 1690 nM and the “% Response Agonist” value (μ-opioid receptor [6]; Conc. 3 μM, criteria ≥± 50%) was 62%. For the same molecule, the “6-OAc-Oxy (%)” value ([7]; 0 hrs) was 89.4%, the “6-OAc-Oxy (%)” value ([7]; 2 hrs) was 68.4% and the “6-OAc-Oxy (%)” value ([7]; 4 hrs) was 66.1%. The “6-OAc-Oxy (%)” value ([7]; 8 hrs) was 58.1% and the “6-OAc-Oxy (%)” value ([7]; 24 hrs) was 46.2%.
